Columns and labels:
[1] = Neuroprotective effect against amyloid beta(25 to 35)-induced cell death in Harlan Sprague-Dawley rat pups cortical neurons assessed as cell viability at 10 uM treated 2 hrs before amyloid beta(25 to 35) treatment after 40 hrs by MTT assay; assay type: functional; details: Cortical neurone, read-out: Activity
[2] = Neuroprotective effect against amyloid beta(25 to 35)-induced cell death in Harlan Sprague-Dawley rat pups cortical neurons assessed as cell viability at 5 uM treated 2 hrs before amyloid beta(25 to 35) treatment after 40 hrs by MTT assay; assay type: functional, Cortical neurone; details: for viability at 5 µM: Rattus norvegicus, Harlan Sprague-Dawley, Cortical neurone, read-out: Activity
[3] = Neuroprotective effect against amyloid beta(25 to 35)-induced cell death in Harlan Sprague-Dawley rat pups cortical neurons assessed as cell viability at 1 uM treated 2 hrs before amyloid beta(25 to 35) treatment after 40 hrs by MTT assay; assay type: functional, Cortical neurone; details: for viability at 1 µM: Rattus norvegicus, Harlan Sprague-Dawley, Cortical neurone, read-out: Activity

Row | Compound | viability at 10 µM [1] | viability at 5 µM [2] | viability at 1 µM [3] | Activity [2] | Activity [3]
1 | C=C1CC[C@H]2[C@@](C)(CO)CCC[C@]2(C)[C@H]1CCC1=CCOC1=O | 28.9% | 34.8% | 41.2% | – | –
2 | C=C1CC[C@@H]2[C@](C)(CC[C@H](O)[C@]2(C)CO)[C@H]1/C=C/C1CCOC1=O (stereo in doubt; 2) | – | – | – | 34.9% | 43.8%
3 | C=C1CC[C@H]2[C@@](C)(CO)CCC[C@]2(C)[C@H]1CCC1CCOC1=O (some centres not stated) | 28.1% | 25.3% | 34.4% | – | –
4 | C=C1CC[C@@H]2[C@](C)(CO)[C@H](O)CC[C@@]2(C)[C@@H]1/C=C/C1=CCOC1=O | 30.8% | 35.7% | 40.7% | – | –
5 | C=C1CC[C@@H]2[C@](C)(CC[C@H](O)[C@]2(C)CO)[C@H]1/C=C/C1CCOC1=O (stereo in doubt; 3) | 36.7% | 39.6% | 45.1% | – | –
6 | CC(=O)N[C@@H](CC(=O)O)C(=O)N[C@@H](CCC(=O)O)C(=O)N[C@H](C(=O)N[C@H](C=O)CC(=O)O)C(C)C | 24.5% | 30.2% | 35.8% | – | –

Reference: ChEMBL document CHEMBL1157334, “Neuroprotective diterpenes from the fruiting body of Antrodia camphorata” (2006)
